Source: patent publication US20230045112A1, “DISULFIRAM AND OTHER REDOX-RELATED COMPOSITIONS FOR BRAIN TUMORS” (Texas Tech University System, priority 2014, published 2023)

Legend:
[1] = target: T1, MGMT (Homo sapiens, UniProt P16455); set-up: endogenous in cells; host or cells: DAOY; conditions: cultured tumor cells; cited from earlier work
T1 sequence (P16455 1-207): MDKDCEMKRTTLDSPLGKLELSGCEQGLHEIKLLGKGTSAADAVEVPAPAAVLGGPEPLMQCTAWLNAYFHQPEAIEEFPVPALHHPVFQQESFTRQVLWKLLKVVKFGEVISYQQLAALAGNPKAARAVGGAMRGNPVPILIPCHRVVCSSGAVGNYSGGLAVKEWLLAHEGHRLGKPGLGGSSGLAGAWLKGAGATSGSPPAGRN

[2] = target: T1, MGMT; test: MGMT activity and protein (western blot) in drug-treated T98G and UW228 brain tumor cells; format: cell-based; set-up: endogenous in cells; host or cells: UW228, T98G; conditions: UW228 cells
Description: The DNA repair activity of MGMT was measured by the transfer of [3H]-labeled methyl groups from the O^6-position of guanine in the DNA substrate to the MGMT protein as described previously. The DNA substrate enriched in O6-methylguanine was prepared by reacting [3H]-methylnitrosourea (GE Healthcare, 60 Ci/mmol). Briefly, the cell pellets were washed with cold PBS, disrupted by sonication in the assay buffer (30 mM Tris-HCl pH 7.5, 0.5 mM DTT, 0.5 mM EDTA, 5% glycerol, and 20 μM spermidine) and centrifuged. The extracts (50-150 μg protein) were supplemented with the [3H]-DNA (10,000 cpm) and incubated at 37° C. The reactions were terminated by the addition of TCA, the DNA substrate was hydrolyzed at 80° C., and following filtration on glass fiber discs; the radioactivity present in protein precipitates was quantitated.
After trypsinization, the cell pellets were washed with cold PBS, and subjected to sonication in 50 mM Tris-HCl (pH 8.0) containing 1% glycerol, 1 mM EDTA, 0.5 mM PMSF and 2 mM benzamidine and centrifuged. Equal protein amounts from different treatments were electrophoresed on 12% SDS-polyacrylamide gels. Proteins were electro-transferred to Immobilon-P membranes. The membranes were blocked with 5% non-fat dry milk in Trisbuffered saline (TBS; pH 8.0) containing 0.1% Tween 20 for 3 hours, and subsequently incubated with appropriate primary antibodies. Antigen-antibody complexes were visualized by enhanced chemiluminiscence (Pierce Company). Band intensities were quantified using a Bio-Rad Versa Doc Imaging system.
Cells were trypsinized, washed and MGMT activity was determined in cell extracts (top panel). The same extracts were western blotted for MGMT protein. WB, western blot. […] Cells were exposed to CuDSF and analyzed for MGMT activity and protein as above. […] To delineate the appropriate time for alkylating drug treatments following MGMT inhibition, next, the time course of MGMT depletion by these three interventions was studied.
At times indicated, MGMT activity and protein levels were assessed.
MGMT performs a stoichiometric reaction to accomplish the DNA repair and is not recycled to its active form. Instead, the inactivated protein is degraded and fresh translation has to occur to restore the MGMT levels in cells. The rate and extent of this recovery is an important factor in the extent of damage introduced to the normal cell genomes such as the bone marrow stem cells. […] MGMT protein and activity levels were analyzed during the depletion and repletion (FIG. 3B).

loss/inhibition of MGMT activity at 12 hours post-drug treatment ([2]; 50 μM, 12 hours): 100%
recovery of MGMT activity, % of control levels ([2]; 48 hours post-drug in drug-free media after 50 μM for 12 hours): 25 % of control levels
Structure (SMILES): Nc1nc(OCc2ccccc2)c2nc[nH]c2n1 [BG, O^6-benzylguanine]
duration of suppression of DNA repair [1]: 48 to 72 h
